In assay [1] the test system is Gabrb3^ECKO cerebral cortex. As to the kind of experiment: Adult (P90) cortex vessel densities and GABA cell counts after prenatal treatment. The format is in vivo, mouse. On the procedure:
Histology, immunohistochemistry, and microscopic analysis: Paraffin immunohistochemistry (IHC) was performed on embryonic brains only while frozen section IHC was used on both embryonic and adult brains. Briefly, for paraffin IHC-E18 brains were fixed in zinc fixative (BD Biosciences PharMingen) for 24 h and processed for paraffin histology. Histological stainings with hematoxylin (Vector Laboratories) and eosin (Sigma) were performed on 8 μm coronal sections. Lectin histochemistry (with biotinylated isolectin B4, 1:50, Sigma) as well as IHC was performed on 20 μm sections. […]
Morphometry: A stereological point grid was superimposed on digital images of biotinylated isolectin-B4+ vessels using ImageJ software. The ratio between points falling on blood vessels and on brain tissue was calculated for each section, and average values were obtained.
Cell counting: Profiles of GABA+ immunoreactive cells were counted in the prefrontal cortex (at bregma levels 1.5, 0.5 and −1.5) using stereotaxic coordinates from the atlas: The Mouse Brain in Stereotaxic Coordinates, by Paxinos and Franklin. For each area, cells in the strip of cortex from the pial surface to the white-gray matter interface were counted using ImageJ software and plotted. […]

In assay [2] the test system is CD1 derived endothelial cells, purified from the periventricular plexus. As to the kind of experiment: Long-distance endothelial cell migration assay. Particulars: vs untreated cells. The assay is classed as cell-based, mouse. On the procedure:
In preparation for long-distance cell migration assays, square culture inserts (ibidi GmbH) were placed at one end of a 35 mm dish. Cultures of CD1 derived endothelial cells, purified from the periventricular plexus, were plated in the insert and allowed to migrate for 24 hours in endothelial cell culture medium. Endothelial cells were labeled with cell trace marker (CellLight Plasma Membrane-RFP, BacMam 2.0, Invitrogen) to visualize endothelial cell morphologies during subsequent imaging. The migration of endothelial cells from one end of the dish to the other spanning a distance of 3.5 cm was imaged and quantified.
In one experiment, periventricular endothelial cells were isolated from E15 wildtype (CD1) forebrain and tested the effect of NAD^+ addition in vitro. Exogenous addition of 100 μM NAD^+ was able to initiate significant endothelial cell proliferation within 2 days of culture and a 35 mm culture dish was confluent within 4-6 days (FIGS. 2A-2D). This was an interesting observation, since untreated periventricular endothelial cells take approximately 12 days to reach confluency in 35mm dishes, in our well-established culture conditions. […] Vital elements of angiogenesis include effective endothelial cell proliferation, migration, sprouting, alignment, tube formation and branching. […]

For the next assay, the system named is Gabrb3^fl/fl littermates. As to the kind of experiment: Prenatal NAD+ treatment, H&E of MGE in Gabrb3^fl/fl littermates. The format is in vivo, mouse. Particulars: NAD^+-treated Gabrb3^fl/fl littermates. As to the method: Histology, immunohistochemistry, and microscopic analysis: Paraffin immunohistochemistry (IHC) was performed on embryonic brains only while frozen section IHC was used on both embryonic and adult brains. Briefly, for paraffin IHC-E18 brains were fixed in zinc fixative (BD Biosciences PharMingen) for 24 h and processed for paraffin histology. Histological stainings with hematoxylin (Vector Laboratories) and eosin (Sigma) were performed on 8 μm coronal sections. Lectin histochemistry (with biotinylated isolectin B4, 1:50, Sigma) as well as IHC was performed on 20 μm sections. Primary antibodies used for IHC were as follows: anti-PHH3 (1:200, Millipore) and anti-NKX2.1, (1:50; Sigma) followed by secondary detection with AlexaFluor conjugates (Invitrogen). DAPI (Vector Laboratories) was used to label nuclei. For frozen section IHC, E18 and P90 brains were removed, fixed in 4% PFA for 24 hours, cryo-protected in sucrose gradient, embedded into OCT medium for frozen blocks; sectioned at 40 μm on a cryostat and immunostained with anti-GABA (1:80, Sigma) and anti -PROX1 (1:80, Millipore) antibodies. Twenty sections from each brain were used for IHC and histology experiments. Uniform penetration of antibodies or stains throughout the section was ascertained and quality of the staining in each digital section was examined. […]

The test system of assay [3] is periventricular endothelial cells isolated from E15 wildtype (CD1) forebrain. As to the kind of experiment: Endothelial cell proliferation in culture (confluency, BrdU labeling index). The assay is classed as cell-based, mouse. As to the method: Primary culture of endothelial cells and endothelial cell staining: Embryonic brains were dissected under a stereo-microscope, after the NAD^+ treatment paradigm and the telencephalon was removed. Pial membranes were peeled off. Telencephalon without pial membranes from the periventricular region was pooled. Purity of endothelial cell cultures was established with endothelial cell markers and determined to be one hundred percent. Isolation and culture of endothelial cells were performed according to published methodology. Periventricular endothelial cells were prepared from CD1 (wild type), saline-treated Gabrb3^fl/fl, saline-treated Gabrb3^ECKO, and NAD^+-treated Gabrb3^ECKO embryos. Endothelial cells were labeled with anti-biotinylated isolectinB4 (1:100, Sigma), anti-GABA (1:400, Sigma), anti-DAXX (1:100, Santa Cruz Biotechnology) and anti-P2X4 (1:100, Abclonal) followed by secondary detection with AlexaFluor conjugates (Invitrogen). DAPI (Invitrogen) was used to label nuclei. Images were taken on an FSX100 microscope (Olympus). 1 million cells were examined for each immunohistochemistry condition.
Endothelial cell proliferation and long-distance cell migration assay: To test for cell proliferation, CD1 periventricular endothelial cells (1 million cells per experiment) were incubated in the presence of the mitotic marker 5-bromo-2′-deoxyuridine (0.05% BrdU) with or without muscimol, for 1 hour to examine the impact on proliferation of these cells and processed for BrdU immunohistochemistry.
In one experiment, periventricular endothelial cells were isolated from E15 wildtype (CD1) forebrain and tested the effect of NAD^+ addition in vitro. Exogenous addition of 100 μM NAD^+ was able to initiate significant endothelial cell proliferation within 2 days of culture and a 35 mm culture dish was confluent within 4-6 days (FIGS. 2A-2D). This was an interesting observation, since untreated periventricular endothelial cells take approximately 12 days to reach confluency in 35mm dishes, in our well-established culture conditions. […] Vital elements of angiogenesis include effective endothelial cell proliferation, migration, sprouting, alignment, tube formation and branching. […] In some areas of the dish, the NAD^+-treated endothelial cells seemed to align and fold into tubular shapes (FIG. 2H), aspects that we have not seen in wild type or untreated periventricular endothelial cells in normal culture conditions.
Effects of NAD^+ addition to periventricular endothelial cells isolated from E15 wildtype (CD1) forebrain was more robust than GABA. (FIGS. 17A-17F) Phase contrast images of periventricular endothelial cells cultured from E15 CD1 forebrain at different time points in untreated conditions (FIGS. 17A-17B) or after plating with NAD^+ addition (100 μM; FIGS. 17C-17D) or GABA addition (5 μM; FIGS. 17E-17F). […] (FIG. 17G) All groups of periventricular endothelial cells were exposed to BrdU (1 mM BrdU per ml medium) for 1 hour followed by Isolectin B4/BrdU double labeling. Quantification of BrdU labeling indices; Data represents mean±SD (n=8, *P<0.05; Student's t-test).
(Incorporation of labelled thymidine or its analogues reports DNA synthesis.)

The structures appear in SMILES notation.

As to `NC(=O)c1ccc[n+]([C@@H]2O[C@H](COP(=O)([O-])OP(=O)(O)OC[C@H]3O[C@@H](n4cnc5c(N)ncnc54)[C@H](O)[C@@H]3O)[C@@H](O)[C@H]2O)c1` [NAD^+], in assay [1], the “GABAergic interneurons in adult cerebral cortex” value was “concurrent increase” and the “blood vessel densities in adult cerebral cortex” value was “concurrent increase”. For the same compound, in assay [2], the “long-distance migration of endothelial cells (cell number)” value is listed as “robust long-distance migration”. For the same compound, the “cellular arrangement in MGE (H&E)” value in the assay on Gabrb3^fl/fl littermates is listed as “the same distinct cellular arrangement in the MGE”. Moreover, the “endothelial cell proliferation (phase contrast)” value in assay [3] (100 μM) is “Robust proliferation”. Also, in assay [3] (100 μM NAD^+, days of culture), the “time to initiate significant endothelial cell proliferation” value is on record as at most 2 days. In addition, in assay [3] (100 μM NAD^+, untreated cells approximately 12 days), the “time until 35 mm culture dish was confluent” value was in the range of 4 to 6 days. The “endothelial cell BrdU labeling index” value in assay [3] (NAD^+ addition vs untreated) was “significantly increased”.

The record behind these values is patent US20220096515A1, “Methods and Formulations for Preventing Neurological or Psychiatric Disorders” (Huntington Medical Research Institutes, priority 2020, published 2022).
